Source: paper PMC11005723, “Development of Complementary Photo‐arginine/lysine to Promote Discovery of Arg/Lys hPTMs Interactomes” (Advanced Science, 2024)
Non-standard residues stand in square brackets, D forms with d. No end group written: not given here. *: point of attachment. Biotin = O=C1N[C@H]2[C@H](CS[C@H]2CCCCC(=O)*)N1; R(dz) = photo-arginine

Tested on: HEK293T nuclear lysates
Assay: SILAC‐based pull‐down proteomics H4K5me1/H4K5 (probes 6/5)
Format: binding, human
Settings: for C6 log (H4K5me/H4K5): run C6; for B6 log2 (H4K5me/H4K5): run B6

probe 6: H4K5me peptide probe with photo‐arginine R(dz) and K(biotin) (SG[R(dz)]GK(Me)GGKGLGKGGK(Biotin))
C6 log (H4K5me/H4K5) (protein P46109 CRKL): 0.1336
B6 log2 (H4K5me/H4K5) (protein P49959 MRE11A): 0.207
C6 log (H4K5me/H4K5) (protein P49959 MRE11A): 0.09642
B6 log2 (H4K5me/H4K5) (protein P54886 ALDH18A1): 0.2574
C6 log (H4K5me/H4K5) (protein P54886 ALDH18A1): 0.1226
B6 log2 (H4K5me/H4K5) (protein P60842 EIF4A1): 0.1721
C6 log (H4K5me/H4K5) (protein P60842 EIF4A1): 0.03464
B6 log2 (H4K5me/H4K5) (protein P62140 PPP1CB): 0.1941
C6 log (H4K5me/H4K5) (protein P62140 PPP1CB): 0.1375
B6 log2 (H4K5me/H4K5) (protein P78527 PRKDC): 0.1659
C6 log (H4K5me/H4K5) (protein P78527 PRKDC): 0.03578
B6 log2 (H4K5me/H4K5) (protein P82979 SARNP): 0.2593
C6 log (H4K5me/H4K5) (protein P82979 SARNP): 0.2358
B6 log2 (H4K5me/H4K5) (protein P83916 CBX1): 1.115
C6 log (H4K5me/H4K5) (protein P83916 CBX1): 1.115
B6 log2 (H4K5me/H4K5) (protein Q5JRI1 FUSIP1): 0.2091
C6 log (H4K5me/H4K5) (protein Q5JRI1 FUSIP1): 0.05687
B6 log2 (H4K5me/H4K5) (protein Q5QPR4 CDC2L2): 0.1546
C6 log (H4K5me/H4K5) (protein Q5QPR4 CDC2L2): 0.218
B6 log2 (H4K5me/H4K5) (protein Q5SY16 NOL9): 0.2457
C6 log (H4K5me/H4K5) (protein Q5SY16 NOL9): 0.6439
B6 log2 (H4K5me/H4K5) (protein Q5T760 SFRS11): 0.2194
C6 log (H4K5me/H4K5) (protein Q5T760 SFRS11): 0.159
B6 log2 (H4K5me/H4K5) (protein Q5UIP0 RIF1): 0.2471
C6 log (H4K5me/H4K5) (protein Q5UIP0 RIF1): 0.213
B6 log2 (H4K5me/H4K5) (protein Q6PD62 CTR9): 0.2151
C6 log (H4K5me/H4K5) (protein Q6PD62 CTR9): 0.2109
B6 log2 (H4K5me/H4K5) (protein Q6PJT7 ZC3H14): 0.2381
C6 log (H4K5me/H4K5) (protein Q6PJT7 ZC3H14): 0.2485
B6 log2 (H4K5me/H4K5) (protein Q7Z6E9 RBBP6): 0.1468
C6 log (H4K5me/H4K5) (protein Q7Z6E9 RBBP6): 0.358
B6 log2 (H4K5me/H4K5) (protein Q8IX15 HOMEZ): 0.2323
C6 log (H4K5me/H4K5) (protein Q8IX15 HOMEZ): 0.1198
B6 log2 (H4K5me/H4K5) (protein Q8N3X1 FNBP4): 0.1827
C6 log (H4K5me/H4K5) (protein Q8N3X1 FNBP4): 0.2005
B6 log2 (H4K5me/H4K5) (protein Q8N5C6 SRBD1): 0.1982
C6 log (H4K5me/H4K5) (protein Q8N5C6 SRBD1): 0.09557
B6 log2 (H4K5me/H4K5) (protein Q8N163 KIAA1967): 0.1537
C6 log (H4K5me/H4K5) (protein Q8N163 KIAA1967): 0.2348
B6 log2 (H4K5me/H4K5) (protein Q8TDD1 DDX54): 0.1648
C6 log (H4K5me/H4K5) (protein Q8TDD1 DDX54): 0.2394
B6 log2 (H4K5me/H4K5) (protein Q9BVJ6 UTP14A): 0.973
C6 log (H4K5me/H4K5) (protein Q9BVJ6 UTP14A): 0.973
B6 log2 (H4K5me/H4K5) (protein Q9H2P0 ADNP): 0.2412
C6 log (H4K5me/H4K5) (protein Q9H2P0 ADNP): -0.7035
B6 log2 (H4K5me/H4K5) (protein Q9H7L9 SUDS3): 1.175
C6 log (H4K5me/H4K5) (protein Q9H7L9 SUDS3): 1.175
B6 log2 (H4K5me/H4K5) (protein Q9H9A6 LRRC40): 0.1942
C6 log (H4K5me/H4K5) (protein Q9H9A6 LRRC40): 0.05299
B6 log2 (H4K5me/H4K5) (protein Q9UBD5 ORC3): 0.1586
C6 log (H4K5me/H4K5) (protein Q9UBD5 ORC3): -0.1103
B6 log2 (H4K5me/H4K5) (protein Q9UBW7 ZMYM2): 0.2577
C6 log (H4K5me/H4K5) (protein Q9UBW7 ZMYM2): 0.2945
B6 log2 (H4K5me/H4K5) (protein Q9UHB6 LIMA1): 0.1593
C6 log (H4K5me/H4K5) (protein Q9UHB6 LIMA1): 0.1812
B6 log2 (H4K5me/H4K5) (protein Q9UQ80 PA2G4): 0.1452
C6 log (H4K5me/H4K5) (protein Q9UQ80 PA2G4): -0.04803
B6 log2 (H4K5me/H4K5) (protein Q9UQR0 SCML2): 0.7435
C6 log (H4K5me/H4K5) (protein Q9UQR0 SCML2): 0.7435
B6 log2 (H4K5me/H4K5) (protein Q9Y2L1 DIS3): 0.1845
C6 log (H4K5me/H4K5) (protein Q9Y2L1 DIS3): 0.1312
B6 log2 (H4K5me/H4K5) (protein Q9Y6C9 MTCH2): 0.1565
C6 log (H4K5me/H4K5) (protein Q9Y6C9 MTCH2): -0.06142
B6 log2 (H4K5me/H4K5) (protein Q86VP6 CAND1): 0.1606
C6 log (H4K5me/H4K5) (protein Q86VP6 CAND1): 0.2263
B6 log2 (H4K5me/H4K5) (protein Q00839 HNRNPU): 0.2071
C6 log (H4K5me/H4K5) (protein Q00839 HNRNPU): 0.1339
B6 log2 (H4K5me/H4K5) (protein Q01082 SPTBN1): 0.2576
C6 log (H4K5me/H4K5) (protein Q01082 SPTBN1): 0.166
B6 log2 (H4K5me/H4K5) (protein Q06265 EXOSC9): 0.1802
C6 log (H4K5me/H4K5) (protein Q06265 EXOSC9): 0.08146
B6 log2 (H4K5me/H4K5) (protein Q06330 RBPJ): 0.1919
C6 log (H4K5me/H4K5) (protein Q06330 RBPJ): -0.04363
B6 log2 (H4K5me/H4K5) (protein Q09161 NCBP1): 0.2194
C6 log (H4K5me/H4K5) (protein Q09161 NCBP1): 0.2078
B6 log2 (H4K5me/H4K5) (protein Q12874 SF3A3): 0.1922
C6 log (H4K5me/H4K5) (protein Q12874 SF3A3): 0.1113
B6 log2 (H4K5me/H4K5) (protein Q12888 TP53BP1): 0.2132
C6 log (H4K5me/H4K5) (protein Q12888 TP53BP1): 0.1756
B6 log2 (H4K5me/H4K5) (protein Q13185 CBX3): 1.132
C6 log (H4K5me/H4K5) (protein Q13185 CBX3): 1.132
B6 log2 (H4K5me/H4K5) (protein Q13363 CTBP1): 0.1923
C6 log (H4K5me/H4K5) (protein Q13363 CTBP1): -0.1428
B6 log2 (H4K5me/H4K5) (protein Q13416 ORC2): 0.2451
C6 log (H4K5me/H4K5) (protein Q13416 ORC2): 0.438
B6 log2 (H4K5me/H4K5) (protein Q14137 BOP1): 0.2019
C6 log (H4K5me/H4K5) (protein Q14137 BOP1): -0.001199
B6 log2 (H4K5me/H4K5) (protein Q14498 RBM39): 0.2408
C6 log (H4K5me/H4K5) (protein Q14498 RBM39): 0.2735
B6 log2 (H4K5me/H4K5) (protein Q14683 SMC1A): 0.1556
C6 log (H4K5me/H4K5) (protein Q14683 SMC1A): 0.1782
B6 log2 (H4K5me/H4K5) (protein Q15459 SF3A1): 0.2515
C6 log (H4K5me/H4K5) (protein Q15459 SF3A1): 0.3427
B6 log2 (H4K5me/H4K5) (protein Q16555 DPYSL2): 0.7641
C6 log (H4K5me/H4K5) (protein Q16555 DPYSL2): 0.7641
B6 log2 (H4K5me/H4K5) (protein Q16658 FSCN1): 0.2138
C6 log (H4K5me/H4K5) (protein Q16658 FSCN1): 0.727
B6 log2 (H4K5me/H4K5) (protein Q92688 ANP32B): 0.1648
C6 log (H4K5me/H4K5) (protein Q92688 ANP32B): 0.135
B6 log2 (H4K5me/H4K5) (protein Q99613 EIF3C): 0.2459
C6 log (H4K5me/H4K5) (protein Q99613 EIF3C): 0.04711
